Measured values reported in US20140011870A1, “Methods of Treating Obesity Using an Effective Dose of a METAP-2 Inhibitor” (Zafgen, Inc., priority 2010, published 2014).

Tests used:
[1] = Body weight in obese patients, twice weekly intravenous administration (clinical trial); format: in vivo, human; conditions: for Dose at which weight loss efficacy is obtained: administered twice weekly
Method: Obese patients were treated in three cohorts with intravenous administration of a formulation of the compound 6-O-(4-dimethylaminoethoxy)cinnamoyl fumagillol oxalate. The compound was intravenously administered to each patient of a cohort (except for a placebo cohort) twice weekly for at least 26 days. Each of patients in the three non-placebo cohorts received either 0.1 mg/m^2 (cohort 1); 0.3 mg/m^2 (cohort 2); or 0.9 mg/m^2 (cohort 3) doses of the compound at the time of administration. The trial was conducted under the appropriate government and medical supervision. […] Table 1 summarizes body weight determination of the 9 patients in the 0.9 mg/m^2 cohort on the day of the first dose and prior to a second dose administered four days later. […] FIG. 1 depicts the body weight change (loss) as a percent before each administration of the biweekly dose for the 0.9 mg/m^2 cohort. FIG. 2 depicts the Visual Analog Scale reports of hunger decline about 50% following successive biweekly dose administration for the 0.9 mg/m^2 cohort. […] All of the subjects of the trial described in Example 1 received doses ranging from 1.8 to 2.2 mg with each administration (given twice weekly). However, weight change of was not strictly associated with dose delivered. Instead, response was strongly associated with dose administered per unit excess body weight, as compared to weight change associated with dose delivered per unit body weight.

adiponectin = test: Adiponectin levels in the serum of patients undergoing the trial; format: in vivo, human; conditions: with treatment
Method: (§1) Obese patients were treated in three cohorts with intravenous administration of a formulation of the compound 6-O-(4-dimethylaminoethoxy)cinnamoyl fumagillol oxalate. The compound was intravenously administered to each patient of a cohort (except for a placebo cohort) twice weekly for at least 26 days. Each of patients in the three non-placebo cohorts received either 0.1 mg/m^2 (cohort 1); 0.3 mg/m^2 (cohort 2); or 0.9 mg/m^2 (cohort 3) doses of the compound at the time of administration. The trial was conducted under the appropriate government and medical supervision. Levels of adiponectin in the serum of patients undergoing the trial were also measured.

[2] = human, in vivo
Method: as §1, with “supervision.” for “supervision. Levels of adiponectin in the serum of patients undergoing the trial were also measured.”
Table 1 summarizes body weight determination of the 9 patients in the 0.9 mg/m^2 cohort on the day of the first dose and prior to a second dose administered four days later.
There was a significant correlation between weight loss of patients and maintained exposure of 0.02 ng/mL of the drug above the level of quantitation of the assay 24 hours after dosing, as shown in FIG. 4 (circled data point is exposure of one poor responder below the level of quantitation of assay). The PK profile at day 26 is representative of steady state (see FIG. 5).

[3] = Visual Analog Scale reports of hunger in obese patients; format: in vivo, human; conditions: successive biweekly dose administration, 0.9 mg/m^2 cohort
Method: FIG. 2 depicts VAS reports of hunger decline by approximately 50% with body weight change (percent) with biweekly dosing of f 0.1 mg/m^2, 0.3 mg/m^2, and 0.9 mg/m^2 (approximately 1.8 to 2.1 mg) of 6-O-(4-dimethylaminoethoxy)cinnamoyl fumagillol in human patients. Values are means (n=6 per dose level) of changes in fasted Visual Analog Scale scores for each visit day vs. Day 1 for population; p values derived from 2-way ANOVA with Bonferroni post-test comparisons (*, p<0.05; **, p<0.01 vs. placebo). Obese patients were treated in three cohorts with intravenous administration of a formulation of the compound 6-O-(4-dimethylaminoethoxy)cinnamoyl fumagillol oxalate. The compound was intravenously administered to each patient of a cohort (except for a placebo cohort) twice weekly for at least 26 days. Each of patients in the three non-placebo cohorts received either 0.1 mg/m^2 (cohort 1); 0.3 mg/m^2 (cohort 2); or 0.9 mg/m^2 (cohort 3) doses of the compound at the time of administration. The trial was conducted under the appropriate government and medical supervision. […] FIG. 1 depicts the body weight change (loss) as a percent before each administration of the biweekly dose for the 0.9 mg/m^2 cohort. FIG. 2 depicts the Visual Analog Scale reports of hunger decline about 50% following successive biweekly dose administration for the 0.9 mg/m^2 cohort.

[4] = listed as 6-O-(4-dimethylaminoethoxy)cinnamoyl fumagillol

With `CO[C@@H]1[C@H](OC(=O)/C=C/c2ccc(OCCN(C)C)cc2)CC[C@]2(CO2)[C@H]1[C@@]1(C)O[C@@H]1CC=C(C)C.O=C(O)C(=O)O` [6-O-(4-dimethylaminoethoxy)cinnamoyl fumagillol oxalate] the “Weight loss efficacy at low doses” value ([1]; 0.1 and 0.3 mg/m^2, twice weekly) was “Lack of efficacy”, the “body weight loss over 26 days of exposure” value ([1]; 7 of the 9 subjects treated at 0.9 mg/m^2, twice weekly) was 3-4% and the “Dose at which weight loss efficacy is obtained” value [1] was at least 0.02 mg/kg. For the same compound, the “Dose at which weight loss efficacy is obtained” value [1, 4] was about 0.02 mg/kg, the “Dose per kg of excess body weight needed to see effects” value ([1]; obese patients, twice weekly) was > 40 μg of drug per kg of excess body weight and the “Increase in adiponectin concentrations” value (adiponectin) was “over 60%”. For the same compound, the “Drug exposure at 24 hours post dose correlated with weight loss” value [2] was “above 0.02 ng/mL”, the “terminal half life of the drug” value ([2]; iv) was 5.4 h and the “Visual Analog Scale reports of hunger decline” value [3] was “about 50%”. For the same compound, the “Visual Analog Scale reports of hunger decline” value [3, 4] was “approximately 50%”.
